We go through ten compounds from paper PMC5007513, “Discovery of new diketopiperazines inhibiting Burkholderia cenocepacia quorum sensing in vitro and in vivo” (Scientific Reports, 2016).

Each structure is given as a SMILES string. Read-outs that look alike come from different tables or passages of the source.

The target in the assay is T1, B. cenocepacia CepI (Burkholderia cenocepacia, UniProt B4EMD2).
T1 sequence (B4EMD2 1-202): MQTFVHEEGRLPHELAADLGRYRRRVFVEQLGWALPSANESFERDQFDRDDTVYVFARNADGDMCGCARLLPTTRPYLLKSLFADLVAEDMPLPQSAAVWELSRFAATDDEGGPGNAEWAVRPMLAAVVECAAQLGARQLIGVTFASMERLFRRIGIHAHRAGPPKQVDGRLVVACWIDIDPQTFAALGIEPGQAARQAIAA
The assay can be described thus: CepI enzymatic assay (holo-ACP formation with DCPIP). The assay is classed as biochemical, Burkholderia cenocepacia J2315. The method, then:
Determination of the CepI enzyme activity was performed spectrophotometrically by measuring holo-ACP formation with dichlorophenylindophenol (DCPIP; ε = 19100 M^−1 cm^−1) at 37 °C according to Christensen et al.[19]. Reaction mixtures typically contained 50 mM 4-(2-hydroxyethyl)-1-piperazineethanesulfonic acid pH 7.5 (HEPES), 0.005% Nonidet P-40, 0.13 mM DCPIP, 70 μM C8-ACP, 40 μM S-adenosyl methionine (SAM), 4 μM CepI and the reaction was started by addition of SAM after pre-incubation for 10 min.
CepI inhibition was initially screened for all compounds at 100 μM (dissolved in DMSO). […] To determine IC50, the enzyme activities were measured in presence of different concentrations of compounds and values determined with equation (1): […]
where A[I] is the enzyme activity at inhibitor concentration [I] and A[0] is the enzyme activity without inhibitor.
Ki determination was determined using the equation (2) for noncompetitive inhibition[49]: […]

[1] abbreviates: recombinant CepI, read-out: CepI IC50.
Setting [2] is: Supplementary Table S1, initial screen at 100 μM.

Turning to `CN1CCN(C(c2ccccn2)c2c(-c3ccccc3)n(O)c3ccccc23)CC1` (stereo not drawn) [compound 1 from Christensen et al., reference compound], the IC50 under setting [1] is 7.2 ± 0.2 µM.
As to `CC(C)[C@H]1NC(=O)C(c2cc(O)ccc2O)NC1=O` (stereo partly drawn) [7c], the “CepI IC50” value under setting [2] is “not inhibitory”.
With `CC(C)C1NC(=O)C(C2=CC(=O)C=CC2=O)NC1=O` (stereo not drawn) [8c], under setting [1], the IC50 was 5 to 30 µM.
With `O=C1CNC(=O)C(c2cc(O)ccc2O)N1` (stereo not drawn) [7a], the “CepI IC50” value under setting [2] is reported as “not inhibitory”.
Still for that read-out and setting: the same measure for `CC(C)[C@H]1NC(=O)C(c2cc(OCc3ccccc3)ccc2OCc2ccccc2)NC1=O` (stereo partly drawn) [6c]: “not inhibitory”.
The same measure, in the same setting: the same measure for `O=C1N[C@H](Cc2ccccc2)C(=O)NC1c1cc(O)ccc1O` (stereo partly drawn) [7b]: “not inhibitory”; for `O=C1N[C@H](Cc2ccccc2)C(=O)NC1c1cc(OCc2ccccc2)ccc1OCc1ccccc1` (stereo partly drawn) [6b]: “not inhibitory”.
For `O=C1C=CC(=O)C(C2NC(=O)CNC2=O)=C1` (stereo not drawn) [8a], the concentration for half-maximal inhibition (IC50) (Supplementary Table S1, initial screen at 100 μM, read-out: CepI IC50) worked out at 10 ± 1 µM.
Compound `O=C1CNC(=O)C(c2cc(OCc3ccccc3)ccc2OCc2ccccc2)N1` (stereo not drawn) [6a] registered an IC50 of 30 ± 6 µM.
In the case of `O=C1C=CC(=O)C(C2NC(=O)C(Cc3ccccc3)NC2=O)=C1` (stereo not drawn) [8b], it took 5 ± 0.8 µM to reach half-maximal inhibition (IC50) and the affinity, expressed as Ki, was 17 ± 0.6 µM. Besides, the mechanism of inhibition entry (towards both C8-ACP and SAM substrates) was “non-competitive inhibitor”.

The IC50 is the concentration at which inhibition is half-maximal. Usually Ki stands for the dissociation constant of the complex between target and ligand, obtained from inhibition or displacement. A lower Ki goes with a stronger hold on the target.
